Laboratory results reported in patent US20260234107A1, “TRYPTAMINES AND METHODS OF TREATING MOOD DISORDERS” (priority 2022, published 2026).
Where two headings read alike, the source gives them in different places.

Key:
5-HT2B = target: T1, 5-HT2B (Homo sapiens, UniProt P41595); experiment: FLIPR Ca2+ flux agonist assay at 5-HT2B; assay type: cell-based; settings: for 5-HT2B % Act @ Max Dose: Ca2+ flux, HEK293, max dose
T1 construct: host or cells: HEK293
Method: (§1) A solution of 250 mM probenecid in 1 mL FLIPR assay buffer was prepared fresh. This was combined with a fluorescent dye (Fluo-4 Direct™) to make a final assay concentration of 2.5 mM. […] The fluorescent dye was then added to the assay plate along with assay buffer to a final volume of 40 μL. The cell plate was incubated for 50 min at 37° C. and 5% CO2 and placed into the FLIPR Tetra along with the compound plate. 10 μL of references and compounds were then transferred from the compound plate into the cell plate and the fluorescent signal was read.

[1] = Metabolic stability in human liver microsomes (HLM); design: microsomal CLint / half-life: dose or concentration left out as unconfirmed; settings: both, human, pooled human liver microsomes, pH 7.4
[2] = Stability in mouse brain homogenate; assay type: in vitro ADME, male CD-1 mice; settings: mouse brain homogenate, 1 μM, 37° C.; for half-life at 1 µM: male, CD-1
Method: Disclosed compounds were tested for stability in mouse brain homogenate (Table 7). There was widely variable stability among the test compounds under the conditions of the experiment.
(§2) Mouse Brain Homogenate Stability. Frozen mouse brain homogenate (pooled from male CD-1 mice, BioreclamationIVT, MSE00BRAINMZA) was thawed in a water bath at 37° C. immediately prior to use. Positive controls and test compounds (final concentration in incubation medium=1 μM for test compounds and 2 μM for controls, all with 2% DMSO) were incubated in duplicate for each time point (0, 10, 30, 60, and 120 min) in the mouse brain homogenate at a total reaction volume of 100 μL at 37° C. At the end of each incubation period, reactions were immediately quenched with 400 μL of acetonitrile containing internal standard (200 ng/mL tolbutamine and 200 ng/mL labetalol) and mixed thoroughly. Plates were then sealed, shaken for 20 min, and centrifuged at 4,000 rpm and 4° C. for 20 min. Aliquots of 50 μL of each supernatant were diluted into 100 μL of water and the mixtures were then shaken again for 10 min.

5-HT1A = target: T2, 5-HT1A (Homo sapiens, UniProt P08908); experiment: FLIPR Ca2+ flux agonist assay at 5-HT1A; assay type: cell-based; settings: for 5-HT1A % Act @ Max Dose: Ca2+ flux, CHO cells
T2 construct: host or cells: CHO cells
T2 sequence (P08908 1-422): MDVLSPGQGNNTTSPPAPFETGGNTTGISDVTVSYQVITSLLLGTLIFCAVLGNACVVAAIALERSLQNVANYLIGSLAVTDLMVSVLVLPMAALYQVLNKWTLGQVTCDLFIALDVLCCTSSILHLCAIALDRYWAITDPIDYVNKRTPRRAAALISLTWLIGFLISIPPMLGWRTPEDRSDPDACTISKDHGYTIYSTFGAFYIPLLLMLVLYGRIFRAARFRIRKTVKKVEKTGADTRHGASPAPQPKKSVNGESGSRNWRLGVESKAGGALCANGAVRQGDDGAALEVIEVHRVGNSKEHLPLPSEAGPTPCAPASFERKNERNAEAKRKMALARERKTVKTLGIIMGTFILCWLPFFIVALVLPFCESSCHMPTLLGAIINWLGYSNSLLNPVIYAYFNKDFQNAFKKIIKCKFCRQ
Method: as §1

5-HT2A = 5-HT2A (Homo sapiens, UniProt P28223); experiment: FLIPR Ca2+ flux agonist assay at 5-HT2A; assay type: cell-based; design: host or cells: HEK293; settings: for 5-HT2A % Act @ Max Dose: HEK293, max dose
Chain of 5-HT2A (P28223 whole entry): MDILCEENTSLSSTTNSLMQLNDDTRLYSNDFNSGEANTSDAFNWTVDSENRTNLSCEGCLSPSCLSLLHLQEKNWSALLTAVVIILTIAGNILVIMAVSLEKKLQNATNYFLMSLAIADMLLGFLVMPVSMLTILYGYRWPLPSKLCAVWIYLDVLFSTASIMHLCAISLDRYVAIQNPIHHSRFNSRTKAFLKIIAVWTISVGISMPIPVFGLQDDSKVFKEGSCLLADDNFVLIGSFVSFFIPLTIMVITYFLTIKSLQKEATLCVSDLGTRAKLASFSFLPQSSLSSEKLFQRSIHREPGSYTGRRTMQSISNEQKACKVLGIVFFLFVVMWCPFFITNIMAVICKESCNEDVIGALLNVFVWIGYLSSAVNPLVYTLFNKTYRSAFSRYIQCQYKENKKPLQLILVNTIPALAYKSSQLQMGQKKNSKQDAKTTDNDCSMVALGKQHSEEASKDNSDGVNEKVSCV
Method: as §1

[3] = Stability in rat brain homogenate; assay type: in vitro ADME, male Sprague Dawley rats; settings: rat brain homogenate, 1 μM, 37° C.; for half-life at 1 µM: male, Sprague Dawley
Method: Disclosed compounds were tested for stability in rat brain homogenate (Table 8). There was widely variable stability among the test compounds under the conditions of the experiment.
as §2, with “Rat” for “Mouse”, “rat” for “mouse”, “Sprague Dawley rats,” for “CD-1 mice,”, “RAT00BRAINMZA)” for “MSE00BRAINMZA)”

[4] = test system: monoamine oxidase A and B (MAO-A and MAO-B); experiment: Stability in the presence of monoamine oxidases (human liver mitochondria preparation); design: half-life / microsomal CLint: dose or concentration left out as unconfirmed; settings: for Remaining (t = 60 min) / half-life / microsomal CLint: human liver mitochondria; for half-life / microsomal CLint: human, pH 7.4; for stability in the presence of MAO (in words): human liver mitochondria preparation
Method: Liver Mitochondria Incubations. Human liver mitochondria (Xenotech H0610.M) were used.

[5] = human liver mitochondria 0.30 mg protein/mL, 37° C.
[6] = Ca2+ flux, HEK293, read-out: 5-HT2A EC50

T1 sequence (P41595 whole entry, species assumed): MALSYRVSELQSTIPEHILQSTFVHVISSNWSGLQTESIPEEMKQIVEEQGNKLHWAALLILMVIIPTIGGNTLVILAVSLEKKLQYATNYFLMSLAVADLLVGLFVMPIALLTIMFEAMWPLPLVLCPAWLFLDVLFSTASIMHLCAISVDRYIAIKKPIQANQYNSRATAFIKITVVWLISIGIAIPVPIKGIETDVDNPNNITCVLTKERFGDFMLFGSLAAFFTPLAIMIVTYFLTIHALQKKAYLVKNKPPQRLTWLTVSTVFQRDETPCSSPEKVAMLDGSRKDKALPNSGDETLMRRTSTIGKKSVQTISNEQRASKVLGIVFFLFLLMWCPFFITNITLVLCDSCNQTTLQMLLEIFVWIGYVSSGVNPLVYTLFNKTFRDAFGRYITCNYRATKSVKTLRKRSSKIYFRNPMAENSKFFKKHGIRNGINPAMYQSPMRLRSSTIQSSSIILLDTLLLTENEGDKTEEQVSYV

| SMILES | EC50 (5-HT2B) [nM] | 5-HT2B % Act @ Max Dose (5-HT2B) [%] | half-life [1] [min] | microsomal CLint [1] [µL/min/mg] | half-life at 1 µM [2] [min] | % Compound Remaining (after 120 min) [2] [%] | EC50 (5-HT1A) [nM] | 5-HT1A % Act @ Max Dose (5-HT1A) [%] | EC50 (5-HT2A) [nM] | 5-HT2A % Act @ Max Dose (5-HT2A; Ca2+ flux) [%] | half-life at 1 µM [3] [min] | % Compound Remaining (after 120 min) [3] [%] | Remaining (t = 60 min) [4] [%] | half-life [4] [min] | microsomal CLint [4] [µL/min/mg] | stability in the presence of MAO (in words) [4] | EC50 (5-HT2A; [6]) [nM] | also measured |
| --- | --- | --- | --- | --- | --- | --- | --- | --- | --- | --- | --- | --- | --- | --- | --- | --- | --- | --- |
| NCCc1c[nH]c2cccc(O)c12 [Compound 1, 3-(2-aminoethyl)-1H-indol-4-ol] | 151 | 83.98 | 34.3 | 40.4 | 12.6 | 0.0 | 92600 | 49.9 | 33.4 | 99.2 | 10 | 0.0 | 51.1 | 70.5 | 32.8 |  |  |  |
| COc1ccc2[nH]cc(CCN(C)C)c2c1 [Compound 5-MeO-DMT, reference compound] |  | 20.5 |  |  |  | 91.2 |  | 78.8 |  |  |  | 0.3 | 47.1 |  |  | rapidly metabolized by MAO |  | t1/2 [2]: >289.1 min; t1/2 [3]: 14.4 min; CLint(MAO) [4, 5]: 43.6 µL/min/mg; t1/2 [4, 5]: 52.9 min |
| Oc1cccc2[nH]cc(CCNCCF)c12 [Compound 7, 3-(2-((2-fluoroethyl)amino)ethyl)-1H-indol-4-ol] | 375 | 20.76 | 77 | 18 | 177 | 61.8 | > 100000 | 42.13 | 47.2 | 86.8 | > 289 | 77.1 | 85.2 | > 145 | < 15.9 |  |  |  |
| C=CCNCCc1c[nH]c2cccc(O)c12 [Compound 23, 3-(2-(allylamino)ethyl)-1H-indol-4-ol] |  |  | 118 | 11.8 | 127 | 49.6 |  |  |  |  | 126 | 52.4 | 83.5 | > 145 |  |  |  |  |
| C#CCNCCc1c[nH]c2cccc(O)c12 [Compound 24, 3-(2-(prop-2-yn-1-ylamino)ethyl)-1H-indol-4-ol] | 88.3 | 48.26 | 92.4 | 15 | 97.3 | 40.5 | > 100000 | −3.14 | 20.1 | 96.07 | 92.4 | 41.9 | 87.2 | > 145 | < 15.9 |  |  |  |
| CNCCc1c[nH]c2ccc(F)c(O)c12 [Compound 26, 5-fluoro-3-(2-(methylamino)ethyl)-1H-indol-4-ol] |  | 13.87 | 0.9 | 1520 | 1.7 | 0 | 3490 | 74.21 | 21 | 86.9 | 2.2 | 0 | 0.1 | 6.3 | 369 |  |  |  |
| Oc1c(F)ccc2[nH]cc(CCNC3CC3)c12 [Compound 27, 3-(2-(cyclopropylamino)ethyl)-5-fluoro-1H-indol-4-ol] | 9.53 | 36.08 | 19.8 | 70 | 69.6 | 29.4 | 1230 | 84.02 |  |  | 15.1 | 0.4 | 32.1 | 36.2 | 63.9 | intermediate stability | 7.37 |  |
| CCNCCc1c[nH]c2cc(F)cc(O)c12 [Compound 29, 3-(2-(ethylamino)ethyl)-6-fluoro-1H-indol-4-ol] |  | 12.18 | > 145 | < 9.6 | 59.9 | 29.9 |  | 16.22 | 17.4 | 80.80 | 113 | 51.9 | 99.1 | > 145 | < 15.9 |  |  |  |
| NCCc1c[nH]c2ccc(F)c(O)c12 [Compound 30, 3-(2-aminoethyl)-5-fluoro-1H-indol-4-ol] | 4.62 | 95.46 | 9.3 | 149 | 6.4 | 0 | 5220 | 73.4 |  |  | 3.9 | 0.1 | 0.0 | 6.5 | 356 |  | 4.06 |  |
| NCCc1c[nH]c2cc(F)cc(O)c12 [Compound 31, 3-(2-aminoethyl)-6-fluoro-1H-indol-4-ol] | 5.07 | 99.12 | 16.9 | 81.8 | 20.3 | 1.6 | 12500 | 18.3 |  |  | 11.4 | 0 | 24.6 | 30.1 | 76.8 | intermediate stability | 6.36 |  |
| NCCc1c[nH]c2c(F)ccc(O)c12 [Compound 32, 3-(2-aminoethyl)-7-fluoro-1H-indol-4-ol] | 30.3 | 66.55 | 16 | 86.5 | 29 | 4.8 | > 100000 | 38.64 |  |  | 9.5 | 0 | 24.0 | 28.4 | 81.4 | intermediate stability | 7.3 |  |
